# Experimental data taken from patent publication US11820766B2, “Monoacylglycerol lipase modulators” (Janssen Pharmaceutica NV, priority 2018, dated 2023).
# Molecular target: T1, human MGL from HeLa cells (Homo sapiens, UniProt Q99685)
# T1 construct: combining endogenously expressed MGL from HeLa cells with test compounds; endogenous in cells; host or cells: HeLa cells / cell homogenates
# T1 sequence (Q99685 1-303): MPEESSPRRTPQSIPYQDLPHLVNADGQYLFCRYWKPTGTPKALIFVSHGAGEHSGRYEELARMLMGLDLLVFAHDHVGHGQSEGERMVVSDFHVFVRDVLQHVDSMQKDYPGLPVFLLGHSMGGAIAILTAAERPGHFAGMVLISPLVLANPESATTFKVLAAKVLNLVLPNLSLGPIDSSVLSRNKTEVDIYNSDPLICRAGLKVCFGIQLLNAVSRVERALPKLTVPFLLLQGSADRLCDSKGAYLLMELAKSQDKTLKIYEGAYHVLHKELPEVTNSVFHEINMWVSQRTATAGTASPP
# Test: In vitro MGL activity assay: [glycerol-1,3-3H]-oleyl glycerol cleavage by MGL from HeLa cells
# Assay type: biochemical
# Conditions: 300 nM [Glycerol-1,3-3H]-oleyl glycerol, one hour incubation
# Description: MGL is the predominant hydrolase in HeLa cells/cell homogenates.
row,Structure (SMILES),IC50 [nM]
1,"Cn1nc2c(c1-c1ccccc1)CCN(C(=O)c1ccc3cc[nH]c3c1)C2 [Example 46, (1H-Indol-6-yl)(2-methyl-3-phenyl-2,4,5,7-tetrahydro-6H-pyrazolo[3,4-c]pyridin-6-yl)methanone]",359
2,"Cn1nc2c(c1-c1ccccc1)CCN(C(=O)c1c[nH]c3c(Cl)cccc13)C2 [Example 48, (7-Chloro-1H-indol-3-yl)(2-methyl-3-phenyl-2,4,5,7-tetrahydro-6H-pyrazolo[3,4-c]pyridin-6-yl)methanone]",103
3,"Cn1nc2c(c1-c1ccccc1)CCN(C(=O)c1cccc3c1ccn3C)C2 [Example 51, (1-Methyl-1H-indol-4-yl)(2-methyl-3-phenyl-2,4,5,7-tetrahydro-6H-pyrazolo[3,4-c]pyridin-6-yl)methanone]",15.6
4,"Cn1nc2c(c1-c1ccccc1)CCN(C(=O)c1noc3ccccc13)C2 [Example 53, Benzo[d]isoxazol-3-yl(2-methyl-3-phenyl-2,4,5,7-tetrahydro-6H-pyrazolo[3,4-c]pyridin-6-yl)methanone]",32.2
5,"Cn1nc2c(c1-c1ccccc1)CCN(C(=O)c1cccc3ncsc13)C2 [Example 59, Benzo[d]thiazol-7-yl(2-methyl-3-phenyl-2,4,5,7-tetrahydro-6H-pyrazolo[3,4-c]pyridin-6-yl)methanone]",403
6,"Cn1nc2c(c1-c1ccccc1)CCN(C(=O)c1ccc3[nH]ncc3c1)C2 [Example 64, (1H-Indazol-5-yl)(2-methyl-3-phenyl-2,4,5,7-tetrahydro-6H-pyrazolo[3,4-c]pyridin-6-yl)methanone]",56.2
7,"Cn1nc2c(c1-c1ccccc1)CCN(C(=O)c1cccc3[nH]ncc13)C2 [Example 65, (1H-Indazol-4-yl)(2-methyl-3-phenyl-2,4,5,7-tetrahydro-6H-pyrazolo[3,4-c]pyridin-6-yl)methanone]",101
8,"Cn1nc2c(c1-c1ccccc1)CCN(C(=O)c1n[nH]c3ccccc13)C2 [Example 66, (1H-Indazol-3-yl)(2-methyl-3-phenyl-2,4,5,7-tetrahydro-6H-pyrazolo[3,4-c]pyridin-6-yl)methanone]",300
9,"Cn1nc2c(c1-c1ccccc1)CCN(C(=O)c1cccc3cn[nH]c13)C2 [Example 67, (1H-Indazol-7-yl)(2-methyl-3-phenyl-2,4,5,7-tetrahydro-6H-pyrazolo[3,4-c]pyridin-6-yl)methanone]",1630
10,"Cn1nc2c(c1-c1ccccc1)CCN(C(=O)c1n[nH]c3c(Cl)cccc13)C2 [Example 69, (7-Chloro-1H-indazol-3-yl)(2-methyl-3-phenyl-2,4,5,7-tetrahydro-6H-pyrazolo[3,4-c]pyridin-6-yl)methanone]",662
11,"Cn1nc2c(c1-c1ccccc1)CCN(C(=O)c1ccc3[nH]cnc3c1)C2 [Example 71, (1H-Benzo[d]imidazol-5-yl)(2-methyl-3-phenyl-2,4,5,7-tetrahydro-6H-pyrazolo[3,4-c]pyridin-6-yl)methanone]",1010
12,"Cn1nc2c(c1-c1ccccc1)CCN(C(=O)c1cccc3[nH]c(C(F)(F)F)nc13)C2 [Example 72, (2-Methyl-3-phenyl-2,4,5,7-tetrahydro-6H-pyrazolo[3,4-c]pyridin-6-yl)(2-(trifluoromethyl)-1H-benzo[d]imidazol-4-yl)methanone]",2320

# Next, values leading:
row,IC50 [nM],Structure (SMILES)
1,70.2,"Cn1nc2c(c1-c1ccccc1)CCN(C(=O)c1c(F)ccc3[nH]ccc13)C2 [Example 47, (5-Fluoro-1H-indol-4-yl)(2-methyl-3-phenyl-2,4,5,7-tetrahydro-6H-pyrazolo[3,4-c]pyridin-6-yl)methanone]"
2,461,"Cn1nc2c(c1-c1ccccc1)CCN(C(=O)c1c[nH]c3cccc(Cl)c13)C2 [Example 49, (4-Chloro-1H-indol-3-yl)(2-methyl-3-phenyl-2,4,5,7-tetrahydro-6H-pyrazolo[3,4-c]pyridin-6-yl)methanone]"
3,2000,"Cc1cccc2cc(C(=O)N3CCc4c(nn(C)c4-c4ccccc4)C3)[nH]c12 [Example 50, (7-Methyl-1H-indol-2-yl)(2-methyl-3-phenyl-2,4,5,7-tetrahydro-6H-pyrazolo[3,4-c]pyridin-6-yl)methanone]"
4,138,"Cn1nc2c(c1-c1ccccc1)CCN(C(=O)c1cn(C)c3ccccc13)C2 [Example 52, (1-Methyl-1H-indol-3-yl)(2-methyl-3-phenyl-2,4,5,7-tetrahydro-6H-pyrazolo[3,4-c]pyridin-6-yl)methanone]"
5,1120,"Cn1nc2c(c1-c1ccccc1)CCN(C(=O)c1noc3cc(Cl)ccc13)C2 [Example 54, (6-Chlorobenzo[d]isoxazol-3-yl)(2-methyl-3-phenyl-2,4,5,7-tetrahydro-6H-pyrazolo[3,4-c]pyridin-6-yl)methanone]"
6,226,"Cn1nc2c(c1-c1ccccc1)CCN(C(=O)c1onc3ccccc13)C2 [Example 55, Benzo[c]isoxazol-3-yl(2-methyl-3-phenyl-2,4,5,7-tetrahydro-6H-pyrazolo[3,4-c]pyridin-6-yl)methanone]"
7,293,"Cn1nc2c(c1-c1ccccc1)CCN(C(=O)c1ccc3ncoc3c1)C2 [Example 56, Benzo[d]oxazol-6-yl(2-methyl-3-phenyl-2,4,5,7-tetrahydro-6H-pyrazolo[3,4-c]pyridin-6-yl)methanone]"
8,1680,"Cn1nc2c(c1-c1ccccc1)CCN(C(=O)c1nc3ccccc3o1)C2 [Example 57, Benzo[d]oxazol-2-yl(2-methyl-3-phenyl-2,4,5,7-tetrahydro-6H-pyrazolo[3,4-c]pyridin-6-yl)methanone]"
9,4180,"Cn1nc2c(c1-c1ccccc1)CCN(C(=O)c1ccc3ocnc3c1)C2 [Example 58, Benzo[d]oxazol-5-yl(2-methyl-3-phenyl-2,4,5,7-tetrahydro-6H-pyrazolo[3,4-c]pyridin-6-yl)methanone]"
10,550,"Cn1nc2c(c1-c1ccccc1)CCN(C(=O)c1ccc3scnc3c1)C2 [Example 60, Benzo[d]thiazol-5-yl(2-methyl-3-phenyl-2,4,5,7-tetrahydro-6H-pyrazolo[3,4-c]pyridin-6-yl)methanone]"
11,755,"Cn1nc2c(c1-c1ccccc1)CCN(C(=O)c1cccc3scnc13)C2 [Example 61, Benzo[d]thiazol-4-yl(2-methyl-3-phenyl-2,4,5,7-tetrahydro-6H-pyrazolo[3,4-c]pyridin-6-yl)methanone]"
12,1640,"Cn1nc2c(c1-c1ccccc1)CCN(C(=O)c1nc3ccccc3s1)C2 [Example 62, Benzo[d]thiazol-2-yl(2-methyl-3-phenyl-2,4,5,7-tetrahydro-6H-pyrazolo[3,4-c]pyridin-6-yl)methanone]"
13,49,"Cn1nc2c(c1-c1ccccc1)CCN(C(=O)c1nsc3ccccc13)C2 [Example 63, Benzo[d]isothiazol-3-yl(2-methyl-3-phenyl-2,4,5,7-tetrahydro-6H-pyrazolo[3,4-c]pyridin-6-yl)methanone]"
14,2190,"Cn1nc2c(c1-c1ccccc1)CCN(C(=O)c1ccc3cn[nH]c3c1)C2 [Example 68, (1H-Indazol-6-yl)(2-methyl-3-phenyl-2,4,5,7-tetrahydro-6H-pyrazolo[3,4-c]pyridin-6-yl)methanone]"
15,380,"Cn1nc2c(c1-c1ccccc1)CCN(C(=O)c1nn(C)c3ccccc13)C2 [Example 70, (1-Methyl-1H-indazol-3-yl)(2-methyl-3-phenyl-2,4,5,7-tetrahydro-6H-pyrazolo[3,4-c]pyridin-6-yl)methanone]"
